The values that follow are results of earlier work, collected in publication PMC5073354, “Direct and indirect mechanisms of KLK4 inhibition revealed by structure and dynamics” (Scientific Reports, 2016).

The test system of series [1] is KLK4. An excerpt:
Since the trypsin-SFTI-1 and matriptase-SFTI-1 protease/inhibitor complexes have been characterized by X-ray crystallography, a structural context is available to dissect relative potencies. […] To examine the interaction between KLK4 and inhibitor we determined the X-ray crystal structure of a KLK4-SFTI-1 complex to 1.0 Å resolution. The inhibitor structure is well-resolved except for missing density in the backbone of Pro13 and the side chain of Asp14. The contact β-sheet of SFTI-1 has multiple interactions with the KLK4 active site, including the P1 Lys5 inserting into the S1 pocket of KLK4 (Fig. 1B). || When comparing the structure of SFTI-1 in the context of trypsin, matriptase and KLK4, differences in the interface correlate to the potency of inhibition. […] Comparison of the structures provides arguments to support this lowered inhibition. SFTI-1 has less buried surface area and fewer interactions with KLK4 than with either trypsin or matriptase (Table S1). SFTI-1 behaves as a Laskowski inhibitor, interacting with its targets following the classi ... || (+ 1 further places)

Another series relates to trypsin. An excerpt:
(§1) Since the trypsin-SFTI-1 and matriptase-SFTI-1 protease/inhibitor complexes have been characterized by X-ray crystallography, a structural context is available to dissect relative potencies.

The next series concerns matriptase.
From the text: as §1

Series [2] concerns KLK4. As to conditions: ion binding to residues more than 20 Å from the active site. An excerpt:
To gain more insight into this mode of inhibition, we crystallized KLK4 under identical conditions but in the absence of PABA inhibitor.

Another series deals with Factor VIIa. As to conditions: FVIIa not bound to tissue factor. An excerpt:
Kallikreins are proteases that perform catalysis in organs with high zinc concentrations. The KLK4 inactivation by nickel described in this work is also proposed to apply to zinc binding to the same […]/[…] site[23]. A molecular understanding of zinc-mediated inhibition of members of the kallikrein family is emerging with three types of inhibition seen[41]. […] This is proposed to inhibit activity by […][42]. Second, zinc binding to residues in loop IV (also known ...

In series [3] the test system is KLK4. To be noted: library of tetrapeptide pNA substrates with invariant P1 Arg. An excerpt: We previously tested the amidolytic activity of KLK4 against a focused library of synthetic tetrapeptide substrates with an invariant P1 Arg[13]. […] To investigate the structural basis for increased potency, we solved the crystal struct ...

For “1GRCTKSIPPICFPD14 (bicyclic or more) [SFTI-1, sunflower trypsin inhibitor-1, 14 amino acid bicyclic peptide; backbone cyclization coupled with an intramolecular disulfide linkage]”, the “rank of potency, KLK4 versus trypsin and matriptase (in words)” value with KLK4 [1] (discrepancy in reported SFTI-1 inhibition constants (ref 12, 26, 27)) is reported as “KLK4 is thought to be the least potently inhibited”. Also, the “inhibition of KLK4 (in words)” value in the series with KLK4 [1] (proteolytic activity of KLK4) was “potently inhibits KLK4 proteolytic activity”. The “inhibition of trypsin (in words)” value in the series with trypsin is “inhibit KLK4 in addition to trypsin and matriptase”. Besides, in the series on matriptase, the “inhibition of matriptase (in words)” value was “inhibit KLK4 in addition to trypsin and matriptase”.
In the case of `[Ni+2]` [Ni^2+, nickel], the “inhibition of KLK4 by metal (in words)” value in the series on KLK4 [2] was “KLK4 can be inhibited”.
In the case of `[Ca+2]` [calcium], the “reversal of zinc inhibition of FVIIa (in words)” value in the series with Factor VIIa (zinc-inhibited) is reported as “can reverse this inhibition with calcium”.
`[Zn+2]` [zinc]: the “inhibition of FVIIa by zinc (in words)” value with Factor VIIa is “is inhibited by zinc”.
On to “FVQR-p-nitroanilide [FVQR-p-nitroanilide (pNA)]”, for which the “amidolytic activity of KLK4 for substrate (in words)” value in the series on KLK4 [3] is “highest activity”.
